Earlier results as cited in PubChem BioAssay AID1259409 (Chemical Carcinogenesis Research Information System (CCRIS), 2018).

Tested on: rodent chemically induced tumor inhibition, incidence and multiplicity
Assay: CCRIS tumor inhibitor studies
Conditions: Route [Inhibitor]: ORAL

## O=C1O[C@H]([C@@H](O)CO)C(O)=C1O
Carcinogen: 1,2-DIMETHYLHYDRAZINE DICHLORIDE, 306-37-6, Dose [Inhibitor]: 0, 0.3% SOLUTION IN DRINKING WATER BEGINNING 1 WK POST CARCINOGEN TREATMENT AND AND CONTINUING FOR DURATION OF STUDY (ST, Species: MOUSE, Strain/Sex: CBA/FEMALE, Target Tissue: Type of Lesion: UTERUS: SARCOMA, Dose [Carcinogen]: 8 MG/KG 1/WK FOR 8 WK, Promoter: ESTRADIOL DIPROPIONATE, 133-38-2
  tumour outcome (control, treated, inhibition, significance): 25/40 (63%), 14/40 (35%), 44%, p<0.001
Carcinogen: 1,2-DIMETHYLHYDRAZINE DICHLORIDE, 306-37-6, Dose [Inhibitor]: 0, 0.3% SOLUTION IN DRINKING WATER BEGINNING 1 WK POST CARCINOGEN TREATMENT AND CONTINUING FOR DURATION OF STUDY (STUDY, Species: MOUSE, Strain/Sex: CBA/FEMALE, Target Tissue: Type of Lesion: UTERUS: SARCOMA, Dose [Carcinogen]: 8 MG/KG 1/WK FOR 8 WK, Promoter: ESTRADIOL DIPROPIONATE, 133-38-2
  tumour outcome (control, treated, inhibition, significance): 25/40 (63%), 24/32 (75%), -19%, not calculated
Carcinogen: 1,2-DIMETHYLHYDRAZINE-DIHYDROCHLORIDE, 306-37-6, Dose [Inhibitor]: 25 MG/KG/D IN DIET STARTING AT TIME OF CARCINOGEN TREATMENT AND CONTINUING FOR 35 WK (STUDY DURATION: 35 WK), Species: MOUSE, Strain/Sex: CF-1/FEMALE, Target Tissue: Type of Lesion: LARGE BOWEL: GLANDULAR TUMORS, Dose [Carcinogen]: 20 MG/KG 1/WK FOR 24 WK, Promoter: NONE USED
  tumour outcome (control, treated, inhibition, significance): 18/20 (90%), 19/22 (86%), 4%, not significant
Carcinogen: 1,2-DIMETHYLHYDRAZINE-DIHYDROCHLORIDE, 306-37-6, Dose [Inhibitor]: 50 MG/KG/D IN DIET STARTING AT TIME OF CARCINOGEN TREATMENT AND CONTINUING FOR 35 WK (STUDY DURATION: 35 WK), Species: MOUSE, Strain/Sex: CF-1/FEMALE, Target Tissue: Type of Lesion: LARGE BOWEL: GLANDULAR TUMORS, Dose [Carcinogen]: 20 MG/KG, 1/WK FOR 24 WK, Promoter: NONE USED
  tumour outcome (control, treated, inhibition, significance): 18/20 (90%), 20/20 (100%), -11%, not significant
Carcinogen: 1,2-DIMETHYLHYDRAZINE-DIHYDROCHLORIDE, 306-37-6, Dose [Inhibitor]: 100 MG/KG/DAY IN DIET STARTING AT TIME OF CARCINOGEN TREATMENT AND CONTINUING FOR 35 WK (STUDY DURATION: 35 WK), Species: MOUSE, Strain/Sex: CF-1/FEMALE, Target Tissue: Type of Lesion: LARGE BOWEL: GLANDULAR TUMORS, Dose [Carcinogen]: 20 MG/KG 1/WK FOR 24 WK, Promoter: NONE USED
  tumour outcome (control, treated, inhibition, significance): 18/20 (90%), 16/23 (70%), 22%, not significant
Carcinogen: 1,2-DIMETHYLHYDRAZINE-DIHYDROCHLORIDE, 306-37-6, Dose [Inhibitor]: 200 MG/KG/DAY IN DIET STARTING AT TIME OF CARCINOGEN TREATMENT AND CONTINUING FOR 35 WK (STUDY DURATION: 35 WK), Species: MOUSE, Strain/Sex: CF-1/FEMALE, Target Tissue: Type of Lesion: LARGE BOWEL: GLANDULAR TUMORS, Dose [Carcinogen]: 20 MG/KG 1/WK FOR 24 WK, Promoter: NONE USED
  tumour outcome (control, treated, inhibition, significance): 18/20 (90%), 19/23 (83%), 8%, not significant
Carcinogen: 1,2-DIMETHYLHYDRAZINE, 540-73-8, Dose [Inhibitor]: 0, 0.02% IN DIET FOR 14 WK BEGINNING 3 D PRIOR TO CARCINOGEN TREATMENT (STUDY DURATION: 26 WK), Species: RAT, Strain/Sex: SPRAGUE-DAWLEY/MALE, Target Tissue: Type of Lesion: INTESTINE: CARCINOMA, Dose [Carcinogen]: 20 MG/KG BW 1/WK FOR 12 WK, Promoter: NONE USED
  tumour outcome (control, treated, inhibition, significance): 23/28 (82%), 12/18 (67%), 18%, not significant
Carcinogen: 1,2-DIMETHYLHYDRAZINE, 540-73-8, Dose [Inhibitor]: 0, 5% IN DIET BEGINNING 1 WK POST LAST CARCINOGEN DOSE AND CONTINUING FOR 36 WK (STUDY DURATION: 40 WK), Species: RAT, Strain/Sex: F344/MALE, Target Tissue: Type of Lesion: COLON: ADENOMA, Dose [Carcinogen]: 20 MG/KG 1/WK FOR 4 WK, Promoter: NONE USED
  tumour outcome (control, treated, inhibition, significance): 1/20 (5%), 6/20 (30%), -500%, p<0.05
Carcinogen: 1,2-DIMETHYLHYDRAZINE, 540-73-8, Dose [Inhibitor]: 0, 5% IN DIET BEGINNING 1 WK POST LAST CARCINOGEN DOSE AND CONTINUING FOR 36 WK (STUDY DURATION: 40 WK), Species: RAT, Strain/Sex: F344/MALE, Target Tissue: Type of Lesion: COLON: CARCINOMA, Dose [Carcinogen]: 20 MG/KG 1/WK FOR 4 WK, Promoter: NONE USED
  tumour outcome (control, treated, inhibition, significance): 6/20 (30%), 7/20 (35%), -17%, not calculated
Carcinogen: 1,2-DIMETHYLHYDRAZINE, 540-73-8, Dose [Inhibitor]: 0, 10 G/L IN DRINKING WATER FOR DURATION OF STUDY BEGINNING 7 D PRIOR TO CARCINOGEN TREATMENT (STUDY DURATION: 8 MO), Species: RAT, Strain/Sex: BD6/MALE, Target Tissue: Type of Lesion: INTESTINE: TUMOR, Dose [Carcinogen]: 20 MG/KG BW 1/WK FOR 20 WK, Promoter: NONE USED
  tumour outcome (control, treated, inhibition, significance): 100%, 100%, 0%, not significant
Carcinogen: 1,2-DIMETHYLHYDRAZINE, 540-73-8, Dose [Inhibitor]: 0.25% IN 20% FAT DIET DAILY STARTING 2 WK BEFORE CARCINOGEN TREATMENT AND CONTINUING FOR DURATION OF STUDY (STUDY DURATI, Species: RAT, Strain/Sex: F344/FEMALE, Target Tissue: Type of Lesion: COLON: ADENOMA, ADENOCARCINOMA, Dose [Carcinogen]: 150 MG/KG BW IN 0.9% SALINE ADJUSTED TO PH 6.8 ONCE, Promoter: NONE USED
  tumour outcome (control, treated, inhibition, significance): 26%, 0%, 100%, p<0.05
Carcinogen: 1,2-DIMETHYLHYDRAZINE, 540-73-8, Dose [Inhibitor]: 0.25% IN 20% FAT DIET DAILY STARTING 2 WK BEFORE CARCINOGEN TREATMENT AND CONTINUING FOR DURATION OF STUDY (STUDY DURATI, Species: RAT, Strain/Sex: F344/FEMALE, Target Tissue: Type of Lesion: KIDNEY: NEPHROBLASTOMA, ADENOCARCINOMA, Dose [Carcinogen]: 150 MG/KG BW IN 0.9% SALINE ADJUSTED TO PH 6.8 ONCE, Promoter: NONE USED
  tumour outcome (control, treated, inhibition, significance): 22%, 4%, 82%, p<0.05
Carcinogen: 1,2-DIMETHYLHYDRAZINE, 540-73-8, Dose [Inhibitor]: 0.3% IN DRINKING WATER BEGINNING AFTER LAST CARCINOGEN DOSE AND CONTINUING FOR DURATION OF STUDY (STUDY DURATION: 55 WK), Species: MOUSE, Strain/Sex: CBA/FEMALE, Target Tissue: Type of Lesion: UTERUS (ENDOMETRIUM): STROMAL SARCOMA, Dose [Carcinogen]: 8 MG/KG BW IN WATER 1/WK FOR 8 WK, Promoter: ESTRADIOL PROPIONATE, 113-38-2
  tumour outcome (control, treated, inhibition, significance): 13/40 (33%), 13/30 (43%), -33%, not calculated
